According to US20220142959A1, “LEUCINE, ACETYL LEUCINE, AND RELATED ANALOGS FOR TREATING DISEASE” (priority 2019, published 2022):

Legend:
[1] = tested on: CD68 positive activated microglia; assay: CD68 positive activated microglia in cerebellum of Npc1−/− mice; format: in vivo; details: 59 days of age, compared to Npc1−/− UT
From the text: FIG. 46 is an image showing cerebellar Purkinje cell loss progressing from anterior to posterior lobes and microglial activation in untreated Npc1^−/− mice and Npc1^−/− mice treated with ADLL, ALL, and ADL. Cerebellums were stained with calbindin-b (Purkinje cells) or CD68 (activated microglia).
FIG. 48 is a scatter graph showing frequency of CD68 positive activated microglia at 59 days of age in untreated Npc1^−/− mice and Npc1^−/− mice treated with ADLL, ALL, and ADL. CD68 cell density was measured in the cerebellum. n=5 animals per group. Mean±SD, *** p<0.0009 (one-way ANOVA).
The combination of increased survival of neurons and a less inflammatory environment in the brain could improve brain function, quality of life, and delay the progression of disease in human subjects.

[2] = tested on: M1-type and M2-type inflammatory markers (mRNA); assay: Real time rt-PCR of inflammatory markers in TBI mouse cortex; format: in vivo, mice; details: for expression of inflammatory markers / pro-inflammatory mediators (overall): CCI induced TBI in mice
Method: (§1) Controlled cortical impact (CCI) induced TBI was performed in male C57BL6/J mice (20-25 g). Briefly, after a 10-mm midline incision was made over the skull, the skin and fascia were retracted, and a 4-mm craniotomy was made on the central aspect of the left parietal bone of mice under surgical anesthesia (2-3% isoflurane evaporated in a gas mixture containing 70% N20 and 30% 02). Moderate injury was induced in the exposed brain by a custom microprocessor-controlled and compressed air driven pneumatic impactor of 3.5 mm diameter tip with the impact velocity of 6 m/s and a deformation depth of 2 mm.
(§2) N-Acetyl-L-Leucine (“NAL” or “NALL”) was dissolved in ethanol to prepare a 50 mg/ml solution which was then diluted in water to give a 10 mg/ml solution. About 0.25 ml of the NAL solution (10 mg/ml) was orally administered in mice at a […] (2.5 mg NAL/25 g mouse) via oral gavage each day after CCI induced TBI for 4 days. Mice were also fed with NAL at 0.5 mg/kg chow powder chow mixed with diet gel for up to 7 days after injury.
The expression level of M1-type pro-inflammatory markers Nos2, Nlrp3, IL-1β, TNF, IFNβ and Nox2 in the perilesional area in TBI mouse cortices were determined by real time rt-PCR. The expression level of M2-type markers Socs3, YM-1, IL4ra and Arg-1 in cortical tissue was also determined.
Total RNA isolated from the ipsilateral cortex using miRNeasy Mini Kit (Qiagen, Cat No. 217004) was converted into cDNA using High Capacity RNA to cDNA kit (Applied Biosystem, Cat. No. 4387406) as per manufacturer's instruction. cDNA TaqMan® Universal Master Mix II (Applied Biosystems, Cat. No. 4440040) was used to perform quantitative real-time PCR amplification as described previously using 20× TaqMan® Gene Expression Assay (Applied Biosystems) for following mouse genes were used: Gapdh (Mm99999915_g1), NLRP3 (Mm00840904_m1), NOX2 (Mm01287743_m1), iNOS (Mm00440502_m1), TNFα (Mm00443258_m1), IFnβ1 (Mm00439552_s1), IL-10 (Mm01288386_m1), IL1b (Mm00434228_m1), Arg1 (Mm00475988_m1), SOCS3 (Mm00545913_s1), YM-1 (Mm00657889_mH) and IL-4ra (Mm01275139_m1) (Applied Biosystems). Reactions were amplified and quantified using a 7900HT Fast Real-Time PCR System and corresponding software (Applied Biosystems). Relative gene expression normalized to Gapdh was calculated based on the comparative Ct method.

α-fodrin = assay: Western blot of α-fodrin cleavage products in cortex after CCI induced TBI; format: in vivo, mice; details: NALL fed vs vehicle fed mouse cortices after TBI; oral gavage 10 mg/kg daily 4 days plus chow
Method: as §1, with “mm. […]” for “mm.”
The level of α-fodrin cleavage products in NALL treated, vehicle treated sham, and TBI mouse cortices were determined by Western blot analysis and using the TUNEL assay to assess whether NALL treatment decreases cortical cell death after TBI.
Around 5 mm tissue of ipsilateral cortex around the site of injury from TBI mice or the corresponding tissue of same volume around the same cortical region from sham mice were dissected and processed. […] Protein bands were detected using chemiluminiscence kit (Pierce, 34076) and visualized using Chemi-doc system (Bio-Rad). Band intensity was analyzed using Image Lab software (Bio-Rad) and normalized to loading control (β-Actin). […]

[3] = CCI induced TBI mice: food intake and body weight; format: in vivo; details: data not shown
Method: as §1, §2

[4] = NAL fed mouse cortices as compared to sham mice
[5] = cortices of NAL fed vs vehicle fed TBI mice

## CC(=O)N[C@@H](CC(C)C)C(=O)O [ALL, acetyl-L-leucine]
[1]
  reduction of frequency of CD68 positive activated microglia: 20%
[2]
  expression of inflammatory markers / pro-inflammatory mediators (overall): modulates the expression of pro-inflammatory mediators
[2]; listed as NAL
  expression of inflammatory markers / pro-inflammatory mediators (overall): reduces expression of several inflammatory markers
[2]; [4]
  levels of IL-4ra: remained unaltered
  levels of Socs3: remained unaltered
  levels of YM-1: remained unaltered
[2]; [5]
  mRNA level of IFNβ: decrease
  mRNA level of Nox2: decrease
[2]; injured mouse cortex, NAL vs vehicle fed TBI mice
  levels of Arg-1: lowered
α-fodrin
  level of 145-150 kDa fragments of α-fodrin: lower level
[3]; NALL treated TBI mice
  change in body weight: no appreciable change
[3]; sham vs TBI mice fed with NALL
  food intake: No significant difference
